We go through 25 compounds from patent US9549932B2, “2-(morpholin-4-yl)-1,7-naphthyridines” (BAYER PHARMA AKTIENGESELLSCHAFT, priority 2014, dated 2017).

Like-named read-outs stand apart in the source and are kept apart here.

For this assay, the target named is full-length human ATR protein (Homo sapiens (Human), UniProt Q13535). The experiment in a line: Binding assay ATR (TR-FRET tracer displacement). A digest of the protocol: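 Full-length human GST-ATR co-purified with ATRIP, pre-complexed 30 min at 22 °C with anti-GST-Tb antibody, then pre-bound with compound 10 min. Tracer A or B added (2 µl of 100 nM solution), 30 min at 22 °C.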
(In general: In TR-FRET formats the signal depends on donor and acceptor labels being close together.)

The mark [1] stands for this setting: tracer A, TR-FRET, read-out: ATR binding (tracer A) IC50.
[2] abbreviates: tracer B, TR-FRET, read-out: ATR binding (tracer B) IC50.

full-length human ATR protein, sequence (Q13535 other isoform, or with tags, fused parts or gaps): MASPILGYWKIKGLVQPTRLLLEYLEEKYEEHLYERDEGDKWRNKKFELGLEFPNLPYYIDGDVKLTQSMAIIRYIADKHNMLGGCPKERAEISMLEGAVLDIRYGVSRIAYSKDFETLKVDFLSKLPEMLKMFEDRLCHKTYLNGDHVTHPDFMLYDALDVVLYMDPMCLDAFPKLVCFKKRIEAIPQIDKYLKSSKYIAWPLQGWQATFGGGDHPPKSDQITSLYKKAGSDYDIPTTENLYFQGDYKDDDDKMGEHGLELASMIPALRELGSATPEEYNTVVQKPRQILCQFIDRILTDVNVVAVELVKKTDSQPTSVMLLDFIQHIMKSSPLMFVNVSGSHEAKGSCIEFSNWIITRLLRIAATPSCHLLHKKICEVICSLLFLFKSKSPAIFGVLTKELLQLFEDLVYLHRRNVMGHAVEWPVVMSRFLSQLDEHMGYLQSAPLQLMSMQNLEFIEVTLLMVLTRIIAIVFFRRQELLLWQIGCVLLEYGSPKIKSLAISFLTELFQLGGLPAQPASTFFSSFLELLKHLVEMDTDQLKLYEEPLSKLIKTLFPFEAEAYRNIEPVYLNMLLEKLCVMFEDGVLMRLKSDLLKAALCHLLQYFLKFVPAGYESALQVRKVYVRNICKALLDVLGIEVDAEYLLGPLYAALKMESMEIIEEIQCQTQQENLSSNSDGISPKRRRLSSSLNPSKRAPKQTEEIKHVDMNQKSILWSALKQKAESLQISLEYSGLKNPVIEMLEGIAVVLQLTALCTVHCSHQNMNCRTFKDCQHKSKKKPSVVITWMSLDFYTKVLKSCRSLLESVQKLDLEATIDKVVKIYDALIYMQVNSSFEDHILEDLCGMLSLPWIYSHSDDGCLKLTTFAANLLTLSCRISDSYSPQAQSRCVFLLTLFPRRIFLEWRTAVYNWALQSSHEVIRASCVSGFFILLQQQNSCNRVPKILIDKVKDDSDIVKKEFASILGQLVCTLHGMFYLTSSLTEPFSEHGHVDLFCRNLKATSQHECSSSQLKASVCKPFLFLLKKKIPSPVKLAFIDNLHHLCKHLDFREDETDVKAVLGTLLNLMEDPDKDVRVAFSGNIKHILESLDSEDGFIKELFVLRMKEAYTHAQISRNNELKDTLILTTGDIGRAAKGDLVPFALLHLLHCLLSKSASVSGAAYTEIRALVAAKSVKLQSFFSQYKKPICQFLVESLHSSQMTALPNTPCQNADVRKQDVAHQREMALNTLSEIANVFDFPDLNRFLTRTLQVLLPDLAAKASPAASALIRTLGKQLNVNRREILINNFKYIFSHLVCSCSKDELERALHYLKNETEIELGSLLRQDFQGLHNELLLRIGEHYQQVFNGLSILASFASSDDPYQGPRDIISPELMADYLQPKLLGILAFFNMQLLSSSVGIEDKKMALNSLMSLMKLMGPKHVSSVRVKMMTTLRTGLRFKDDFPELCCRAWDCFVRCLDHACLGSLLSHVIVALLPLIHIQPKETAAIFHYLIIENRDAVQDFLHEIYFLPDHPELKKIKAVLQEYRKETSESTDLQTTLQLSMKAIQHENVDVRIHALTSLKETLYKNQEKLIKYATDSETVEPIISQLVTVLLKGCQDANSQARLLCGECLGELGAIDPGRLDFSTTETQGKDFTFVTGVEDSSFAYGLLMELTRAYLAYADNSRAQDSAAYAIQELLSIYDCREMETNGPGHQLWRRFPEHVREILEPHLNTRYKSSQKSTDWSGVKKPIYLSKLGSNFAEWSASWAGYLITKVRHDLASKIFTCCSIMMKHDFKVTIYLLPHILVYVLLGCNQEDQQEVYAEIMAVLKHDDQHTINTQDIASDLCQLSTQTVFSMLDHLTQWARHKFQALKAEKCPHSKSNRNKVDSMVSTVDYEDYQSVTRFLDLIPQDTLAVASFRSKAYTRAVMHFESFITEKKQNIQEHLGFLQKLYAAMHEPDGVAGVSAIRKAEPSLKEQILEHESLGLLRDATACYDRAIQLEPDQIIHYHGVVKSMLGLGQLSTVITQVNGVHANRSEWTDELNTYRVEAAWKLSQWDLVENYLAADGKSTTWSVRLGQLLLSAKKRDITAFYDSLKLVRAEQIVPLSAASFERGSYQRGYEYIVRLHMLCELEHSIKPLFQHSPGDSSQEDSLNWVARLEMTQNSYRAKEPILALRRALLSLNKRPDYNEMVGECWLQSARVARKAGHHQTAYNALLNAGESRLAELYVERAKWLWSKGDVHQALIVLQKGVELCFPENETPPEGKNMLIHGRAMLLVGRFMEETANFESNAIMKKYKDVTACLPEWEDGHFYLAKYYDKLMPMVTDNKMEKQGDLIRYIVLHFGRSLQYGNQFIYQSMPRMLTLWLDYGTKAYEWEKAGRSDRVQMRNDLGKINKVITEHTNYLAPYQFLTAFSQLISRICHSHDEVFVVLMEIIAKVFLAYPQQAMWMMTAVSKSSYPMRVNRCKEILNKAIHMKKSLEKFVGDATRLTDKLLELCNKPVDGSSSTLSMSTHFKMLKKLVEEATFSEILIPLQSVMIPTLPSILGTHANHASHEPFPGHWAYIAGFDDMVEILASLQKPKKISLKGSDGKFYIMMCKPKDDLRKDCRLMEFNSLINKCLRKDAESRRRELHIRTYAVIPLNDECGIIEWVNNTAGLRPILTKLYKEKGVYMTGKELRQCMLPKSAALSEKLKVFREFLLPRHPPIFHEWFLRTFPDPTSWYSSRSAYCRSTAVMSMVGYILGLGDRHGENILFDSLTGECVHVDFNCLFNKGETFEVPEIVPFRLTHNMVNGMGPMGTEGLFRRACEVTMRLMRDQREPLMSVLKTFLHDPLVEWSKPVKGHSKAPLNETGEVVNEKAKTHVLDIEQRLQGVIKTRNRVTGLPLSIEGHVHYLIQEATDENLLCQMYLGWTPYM
full-length human ATR protein, sequence (Q8WXE1 other isoform, or with tags, fused parts or gaps partner): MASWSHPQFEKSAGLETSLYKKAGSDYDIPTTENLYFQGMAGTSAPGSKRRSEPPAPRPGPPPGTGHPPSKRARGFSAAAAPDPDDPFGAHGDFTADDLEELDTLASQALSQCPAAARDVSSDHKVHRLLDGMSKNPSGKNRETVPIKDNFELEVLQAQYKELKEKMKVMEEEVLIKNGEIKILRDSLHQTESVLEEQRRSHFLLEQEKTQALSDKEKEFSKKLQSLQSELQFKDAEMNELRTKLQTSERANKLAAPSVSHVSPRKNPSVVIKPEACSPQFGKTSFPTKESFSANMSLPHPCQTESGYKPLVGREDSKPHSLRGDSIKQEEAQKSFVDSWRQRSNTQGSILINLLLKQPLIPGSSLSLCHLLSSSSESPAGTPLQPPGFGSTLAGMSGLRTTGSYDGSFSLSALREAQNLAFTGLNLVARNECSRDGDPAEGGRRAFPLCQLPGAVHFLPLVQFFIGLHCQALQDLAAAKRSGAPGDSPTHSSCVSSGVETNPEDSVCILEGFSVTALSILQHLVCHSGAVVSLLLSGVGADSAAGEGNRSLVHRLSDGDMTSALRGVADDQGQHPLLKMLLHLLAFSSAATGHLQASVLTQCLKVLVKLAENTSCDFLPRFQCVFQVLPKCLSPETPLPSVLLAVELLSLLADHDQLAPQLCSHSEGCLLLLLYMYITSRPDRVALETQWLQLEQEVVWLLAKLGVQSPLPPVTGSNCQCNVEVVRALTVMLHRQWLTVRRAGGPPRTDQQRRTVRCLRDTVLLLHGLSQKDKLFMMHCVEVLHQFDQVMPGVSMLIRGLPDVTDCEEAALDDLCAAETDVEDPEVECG

One may read the IC50 as the concentration needed to halve the response being measured. On to `C[C@@H]1COCCN1c1cc(-c2cnn(CCO)c2)c2ccnc(-c3ccn[nH]3)c2n1` [Example 260, 2-(4-{2-[(3R)-3-methylmorpholin-4-yl]-8-(1H-pyrazol-5-yl)-1,7-naphthyridin-4-yl}-1H-pyrazol-1-yl)ethanol], for which, under setting [1], the IC50 stood at 28.1 nM.
Same read-out and setting: to `Cc1cscc1-c1cc(N2CCOC[C@H]2C)nc2c(-c3ccn[nH]3)nccc12` [Example 101, 2-[(3R)-3-methylmorpholin-4-yl]-4-(4-methyl-3-thienyl)-8-(1H-pyrazol-5-yl)-1,7-naphthyridine] belongs 11.3 nM.
`CS(=O)(=O)c1ccc(-c2cc(N3CCOCC3)nc3c(-c4ccn[nH]4)nccc23)c(F)c1` [Example 24, 4-[2-fluoro-4-(methylsulfonyl)phenyl]-2-(morpholin-4-yl)-8-(1H-pyrazol-5-yl)-1,7-naphthyridine]: the IC50 runs as follows: under setting [1], 38.2 nM; under setting [2], 20.7 nM.
`C[C@@H]1COCCN1c1cc(-c2ccc(N3CCCC3)cc2F)c2ccnc(-c3ccn[nH]3)c2n1` [Example 134, 4-[2-fluoro-4-(pyrrolidin-1-yl)phenyl]-2-[(3R)-3-methylmorpholin-4-yl]-8-(1H-pyrazol-5-yl)-1,7-naphthyridine]: the IC50 under setting [1] was 34.3 nM.
The same measure, in the same setting: the result for `Fc1cccc(-c2cc(N3CCOCC3)nc3c(-c4ccn[nH]4)nccc23)c1F` [Example 341, 4-(2,3-difluorophenyl)-2-(morpholin-4-yl)-8-(1H-pyrazol-5-yl)-1,7-naphthyridine] reads 26.4 nM; that for `C[C@@H]1COCCN1c1cc(N=S(C)(=O)c2ccccc2F)c2ccnc(-c3ccn[nH]3)c2n1` (single isomer, unassigned) [Example 141], 386 nM.
Take `COP(=O)(O)c1ccc(-c2cc(N3CCOCC3)nc3c(-c4ccn[nH]4)nccc23)cc1` [Example 181, Methyl hydrogen {4-[2-(morpholin-4-yl)-8-(1H-pyrazol-5-yl)-1,7-naphthyridin-4-yl]phenyl}phosphonate]: the concentration for half-maximal inhibition (IC50) (read-out: ATR binding (tracer A) IC50) was determined as 539 nM.
Turning to `CC(C)CN(C)c1cc(N2CCOCC2)nc2c(-c3ccn[nH]3)nccc12` [Example 423, N-methyl-N-(2-methylpropyl)-2-(morpholin-4-yl)-8-(1H-pyrazol-5-yl)-1,7-naphthyridin-4-amine], the half-inhibitory concentration (IC50) under setting [1] turned out to be 83.9 nM.
The same measure, in the same setting: to `CN(c1cc(N2CCOCC2)nc2c(-c3ccn[nH]3)nccc12)C1CC1` [Example 435, N-cyclopropyl-N-methyl-2-(morpholin-4-yl)-8-(1H-pyrazol-5-yl)-1,7-naphthyridin-4-amine] belongs 65.1 nM; to `O=C(c1cccc(-c2cc(N3CCOCC3)nc3c(-c4ccn[nH]4)nccc23)c1)N1CCCCC1` [Example 328, {3-[2-(morpholin-4-yl)-8-(1H-pyrazol-5-yl)-1,7-naphthyridin-4-yl]phenyl}(piperidin-1-yl)methanone], 296 nM; to `C[C@@H]1COCCN1c1cc(-c2ccn(CCO)n2)c2ccnc(-c3ccn[nH]3)c2n1` [Example 160, 2-(3-{2-[(3R)-3-methylmorpholin-4-yl]-8-(1H-pyrazol-5-yl)-1,7-naphthyridin-4-yl}-1H-pyrazol-1-yl)ethanol], 37.2 nM.
For the compound `C[C@H]1CN(c2cc(N3CCOCC3)nc3c(-c4ccn[nH]4)nccc23)CCO1` [Example 170, 4-[(2S)-2-methylmorpholin-4-yl]-2-(morpholin-4-yl)-8-(1H-pyrazol-5-yl)-1,7-naphthyridine], the IC50 under setting [1] turned out to be 168 nM.
On the same count and under the same terms, to `COc1ccsc1-c1cc(N2CCOC[C@H]2C)nc2c(-c3ccn[nH]3)nccc12` [Example 235, 4-(3-methoxythiophen-2-yl)-2-[(3R)-3-methylmorpholin-4-yl]-8-(1H-pyrazol-5-yl)-1,7-naphthyridine] belongs 21.3 nM.
Take `Fc1ccc(-c2cc(N3CCOCC3)nc3c(-c4ccn[nH]4)nccc23)cn1` [Example 360, 4-(6-fluoropyridin-3-yl)-2-(morpholin-4-yl)-8-(1H-pyrazol-5-yl)-1,7-naphthyridine]: the half-maximal inhibitory concentration (IC50) under setting [1] was determined as 93.8 nM.
As for `C[C@@H]1COCCN1c1cc(-c2ccnc3[nH]ccc23)c2ccnc(-c3ccn[nH]3)c2n1` [Example 104, 2-[(3R)-3-methylmorpholin-4-yl]-8-(1H-pyrazol-5-yl)-4-(1H-pyrrolo[2,3-b]pyridin-4-yl)-1,7-naphthyridine], the IC50 under setting [1] worked out at 14.1 nM.
On the same count and under the same terms, the result for `c1cc(-c2nccc3c(-c4ccc(N5CCOCC5)nc4)cc(N4CCOCC4)nc23)[nH]n1` [Example 369, 2-(morpholin-4-yl)-4-[6-(morpholin-4-yl)pyridin-3-yl]-8-(1H-pyrazol-5-yl)-1,7-naphthyridine] reads 115 nM; that for `C[C@@H]1COCCN1c1cc(C2(S(C)(=O)=O)CC2)c2ccnc(-c3ccn[nH]3)c2n1` [Example 286, 2-[(3R)-3-methylmorpholin-4-yl]-4-[1-(methylsulfonyl)cyclopropyl]-8-(1H-pyrazol-5-yl)-1,7-naphthyridine], 14.5 nM; that for `c1cnc2ccc(-c3cc(N4CCOCC4)nc4c(-c5ccn[nH]5)nccc34)cc2c1` [Example 384, 2-(morpholin-4-yl)-8-(1H-pyrazol-5-yl)-4-(quinolin-6-yl)-1,7-naphthyridine], 89.2 nM.
The same measure, in the same setting: to `C[C@@H]1COCCN1c1cc(N=S(C)(=O)C(C)(C)C)c2ccnc(-c3ccn[nH]3)c2n1` (stereo partly drawn) [Example 278, 4-{[tert-butyl(methyl)oxido-λ^6-sulfanylidene]amino}-2-[(3R)-3-methylmorpholin-4-yl]-8-(1H-pyrazol-5-yl)-1,7-naphthyridine] belongs 26.9 nM.
On the same count and under the same terms, the result for `C[C@@H]1COCCN1c1cc(-c2cccc(F)c2F)c2ccnc(-c3ccn[nH]3)c2n1` [Example 72, 4-(2,3-difluorophenyl)-2-[(3R)-3-methylmorpholin-4-yl]-8-(1H-pyrazol-5-yl)-1,7-naphthyridine] reads 6.33 nM; that for `C[C@@H]1COCCN1c1cc(-c2cnc(S(C)(=O)=O)c(F)c2)c2ccnc(-c3ccn[nH]3)c2n1` [Example 147, 4-[5-fluoro-6-(methylsulfonyl)pyridin-3-yl]-2-[(3R)-3-methylmorpholin-4-yl]-8-(1H-pyrazol-5-yl)-1,7-naphthyridine], 45.4 nM.
`C[C@@H]1COCCN1c1cc(-c2cnn(C(F)F)c2)c2ccnc(-c3ccn[nH]3)c2n1` [Example 256, 4-[1-(difluoromethyl)-1H-pyrazol-4-yl]-2-[(3R)-3-methylmorpholin-4-yl]-8-(1H-pyrazol-5-yl)-1,7-naphthyridine]: under setting [1], the IC50 was found to be 56.2 nM.
Same read-out and setting: to `C[C@@H]1COCCN1c1cc(C2CCS(=O)(=O)CC2)c2ccnc(-c3ccn[nH]3)c2n1` [Example 204, 4-(1,1-dioxidotetrahydro-2H-thiopyran-4-yl)-2-[(3R)-3-methylmorpholin-4-yl]-8-(1H-pyrazol-5-yl)-1,7-naphthyridine] belongs 6.76 nM.
The same measure, in the same setting: the result for `COc1cc(-c2cc(N3CCOCC3)nc3c(-c4ccn[nH]4)nccc23)ccn1` [Example 351, 4-(2-methoxypyridin-4-yl)-2-(morpholin-4-yl)-8-(1H-pyrazol-5-yl)-1,7-naphthyridine] reads 154 nM.
`c1ccc(COc2cc(N3CCOCC3)nc3c(-c4cc[nH]n4)nccc23)cc1` [Example 50, 4-benzyloxy-2-(morpholin-4-yl)-8-(1H-pyrazol-3-yl)-[1,7]naphthyridine]: the IC50 is, setting by setting: under setting [1], 410 nM; under setting [2], 514 nM.
